Test results published in ChEMBL document CHEMBL5625206, “Design, synthesis, and evaluation of novel pleuromutilin aryl acrylate derivatives as promising broad-spectrum antibiotics especially for combatting multi-drug resistant gram-negative bacteria” (Eur J Med Chem, 2023).
≈ marks a conversion by molar mass, not a printed value.

What was measured:
Staphylococcus aureus [1] = experiment: Bactericidal activity against methicillin-resistant Staphylococcus aureus ATCC 33591 at 2 to 4 times MIC incubated for 24 hrs by time kill assay relative to control; type: functional
[2] = system: Staphylococcus epidermidis; experiment: Antibacterial activity against Staphylococcus epidermidis ATCC 12228 assessed as bacterial growth inhibition incubated for 24 hrs by CLSI based broth microdilution method; type: functional
Escherichia coli = experiment: Antibacterial activity against Escherichia coli ATCC 25922 assessed as bacterial growth inhibition incubated for 24 hrs by CLSI based broth microdilution method; type: functional
Staphylococcus aureus [3] = experiment: Antibacterial activity against methicillin-resistant Staphylococcus aureus ATCC 33591 assessed as bacterial growth inhibition incubated for 24 hrs by CLSI based broth microdilution method; type: functional
Acinetobacter baumannii [4] = experiment: Antibacterial activity against Acinetobacter baumannii ATCC 19606 assessed as bacterial growth inhibition incubated for 24 hrs by CLSI based broth microdilution method; type: functional
Acinetobacter baumannii [5] = experiment: Antibacterial activity against carbapenem-resistant Acinetobacter baumannii 882 clinical isolate assessed as bacterial growth inhibition incubated for 24 hrs by CLSI based broth microdilution method; type: functional
[6] = Cytotoxicity against HEK293 cells incubated for 24 hrs by CCK8 assay; type: toxicity, cell-based; details: human
Klebsiella pneumoniae = experiment: Antibacterial activity against multidrug-resistant Klebsiella pneumoniae 893 clinical isolate assessed as bacterial growth inhibition incubated for 24 hrs by CLSI based broth microdilution method; type: functional
[7] = Cytotoxicity against human A549 cells incubated for 24 hrs by CCK8 assay; type: toxicity, cell-based
Enterococcus = experiment: Antibacterial activity against vancomycin-resistant Enterococcus 80 clinical isolate assessed as bacterial growth inhibition incubated for 24 hrs by CLSI based broth microdilution method; type: functional
[8] = Cytotoxicity against human HepG2 cells incubated for 24 hrs by CCK8 assay; type: toxicity, cell-based
Staphylococcus aureus [9] = experiment: Antibacterial activity against Staphylococcus aureus ATCC 25923 assessed as bacterial growth inhibition incubated for 24 hrs by CLSI based broth microdilution method; type: functional
Staphylococcus aureus [10] = experiment: Antibacterial activity against methicillin-resistant Staphylococcus aureus 575 clinical isolate assessed as bacterial growth inhibition incubated for 24 hrs by CLSI based broth microdilution method; type: functional
Pseudomonas aeruginosa = experiment: Antibacterial activity against multidrug-resistant Pseudomonas aeruginosa 126 clinical isolate assessed as bacterial growth inhibition incubated for 24 hrs by CLSI based broth microdilution method; type: functional
Staphylococcus aureus [11] = experiment: Antibacterial activity against methicillin-resistant Staphylococcus aureus 171 clinical isolate assessed as bacterial growth inhibition incubated for 24 hrs by CLSI based broth microdilution method; type: functional
Staphylococcus aureus [12] = experiment: Bactericidal activity against methicillin-resistant Staphylococcus aureus ATCC 33591 at MIC incubated for 24 hrs by time kill assay relative to control; type: functional
Staphylococcus aureus [13] = experiment: Antibacterial activity against Staphylococcus aureus ATCC 29213 assessed as bacterial growth inhibition incubated for 24 hrs by CLSI based broth microdilution method; type: functional

SMILES: C=C[C@]1(C)C[C@@H](OC(=O)CS[C@@H]2C[C@H]3CC[C@@H](C2)N3C)[C@]2(C)[C@H](C)CC[C@]3(CCC(=O)[C@H]32)[C@@H](C)[C@@H]1O [RETAPAMULIN]
- Activity (Staphylococcus aureus [1]): 100%
- MIC [2]: 32 µg/mL (≈ 61.8 µM)
- MIC (Escherichia coli): 16 µg/mL (≈ 30.9 µM)
- MIC (Staphylococcus aureus [3]): 32 µg/mL (≈ 61.8 µM)
- MIC (Acinetobacter baumannii [4]): 16 µg/mL (≈ 30.9 µM)
- MIC (Acinetobacter baumannii [5]): 64 µg/mL (≈ 124 µM)
- CC50 at 24 h [6]: 62.9 µM
- MIC (Klebsiella pneumoniae): 64 µg/mL (≈ 124 µM)
- CC50 at 24 h [7]: 74.2 µM
- MIC (Enterococcus): > 128 µg/mL
- CC50 at 24 h [8]: 36.5 µM
- MIC (Staphylococcus aureus [9]): 4 µg/mL (≈ 7.73 µM)
- MIC (Staphylococcus aureus [10]): 64 µg/mL (≈ 124 µM)
- MIC (Pseudomonas aeruginosa): 128 µg/mL (≈ 247 µM)
- MIC (Staphylococcus aureus [11]): 128 µg/mL (≈ 247 µM)
- Activity (Staphylococcus aureus [12]): 44.49%
- MIC (Staphylococcus aureus [13]): 4 µg/mL (≈ 7.73 µM)
